Results taken from patent US20250223281A1, “ANTIDIABETIC COMPOUNDS AND COMPOSITIONS” (REZUBIO PHARMACEUTICALS CO., LTD, priority 2022, published 2025).

Molecular target: T1, GPR40 (Homo sapiens, UniProt O14842)
T1 construct: expressed in transfected cells; host or cells: HEK293 cells stably expressing GPR40 (Hygromycin selection)
Assay: IP1 accumulation assay in HEK293 cells stably expressing GPR40
Type: cell-based
Summary of the method: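 HEK293 cells stably expressing human GPR40 were incubated with compounds (10-point, 3-fold dilution series) for 2 h at 37 °C, then IP1 was detected by HTRF (665/615 nm ratio). Effect was normalised to DMSO blank and AMG-1638 as 100%, and EC50 was derived from dose curves.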

[1] = IP1 accumulation, HEK293 cells stably expressing GPR40, 2 hours at 37° C., % effect relative to AMG-1638, table of Biological Example 1
[2] = Tables A-1a to A-7b (structure-property relationship), obtained by methods of Biological Example 1
[3] = Table A-8 (additional examples), obtained by methods of Biological Example 1

T1 sequence (O14842 whole entry): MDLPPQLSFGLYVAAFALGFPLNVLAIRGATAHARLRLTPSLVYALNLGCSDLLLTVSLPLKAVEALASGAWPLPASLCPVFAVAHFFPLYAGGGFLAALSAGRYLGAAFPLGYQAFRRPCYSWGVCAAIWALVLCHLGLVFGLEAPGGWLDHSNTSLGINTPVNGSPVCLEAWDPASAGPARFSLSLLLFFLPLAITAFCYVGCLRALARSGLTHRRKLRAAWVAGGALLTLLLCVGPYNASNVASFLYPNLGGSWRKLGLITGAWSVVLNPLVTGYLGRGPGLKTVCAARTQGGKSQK

SMILES	EC50 [1] [nM]	EC50 [2] [nM]	EC50 [3] [nM]
C[C@H](C(=O)O)[C@H](c1ccc2c(c1)O[C@@H](C1CCN(Cc3cc(-n4cc(CCCCCCCCCCCCCCCCCC(=O)NCC[N+](C)(C)C)nn4)ccc3OC(F)(F)F)CC1)CC2)C1CC1 [Example 70]	0.43	–	–
COc1ccc(F)c(-c2ccc(COc3cccc([C@@H](CC(=O)O)C4CC4)c3)cc2C(OCCCCCn2cc(CCCCCCCCCCCCCCCCCC(=O)NCCN(CCC(=O)NCCN)CCC(=O)NCCN)nn2)C(C)(C)C)c1 (some centres unmarked) [Example 12]	1.12	–	–
C[C@H](C(=O)O)[C@H](c1ccc2c(c1)O[C@@H](C1CCN(Cc3cc(-n4cc(CCCCCCCCCCC(=O)NCC[N+](C)(CCC(=O)NCCN)CCC(=O)NCCN)nn4)ccc3OC(F)(F)F)CC1)CC2)C1CC1 [Example 86]	195	195	–
COc1ccc(F)c(-c2ccc(COc3cccc([C@@H](CC(=O)O)C4CC4)c3)cc2CC(C)(C)Cn2cc(CCCCCCCCCCCCCC(=O)NCCCN(CC(=O)O)CC(=O)O)nn2)c1 [Example 106]	696	–	–
COc1ccc(F)c(-c2ccc(COc3cccc([C@@H](CC(=O)O)C4CC4)c3)cc2CC(C)(C)Cn2cc(CCCCCCCCCCCCCCCCCC(=O)NCCC[N+](C)(CC(=O)O)CC(=O)O)nn2)c1 [Example 93]	4.58	–	–
COc1ccc(F)c(-c2ccc(COc3cccc([C@@H](CC(=O)O)C4CC4)c3)cc2OC(C)(C)COCc2cn(CCCCCCCCCCCCCC(=O)NCC[N+](C)(CCC(=O)NCCN)CCC(=O)NCCN)nn2)c1 [Example 26]	75.8	–	–
COc1ccc(C(=O)N(CC(C)(C)CCCCCCCCCCCCCCCCCCCC(=O)NCC[N+](C)(CC(=O)NCCN)CC(=O)NCCN)c2cccc(C)n2)c(N2CCC(COc3cc([C@@H](CC(=O)O)C4CC4)ccn3)CC2)c1 [Example 67]	0.38	–	–
COc1ccc(F)c(-c2ccc(COc3cccc([C@@H](CC(=O)O)C4CC4)c3)cc2CC(C)(C)Cc2cn(CCCCCCCCCCCCCCCCCC(=O)NCC[N+](C)(CCC(=O)NCCN)CCC(=O)NCCN)nn2)c1 [Example 24]	2.04	2.04	–
C[C@H](C(=O)O)[C@H](c1ccc2c(c1)O[C@@H](C1CCN(Cc3cc(-n4cc(CCCCCCCCCCC(=O)NCCN(CCC(=O)NCCN)CCC(=O)NCCN)nn4)ccc3OC(F)(F)F)CC1)CC2)C1CC1 [Example 79]	183	183	–
COc1ccc(C(=O)N(CC(C)(C)CCCCCCCCCCCCCCCCCCCC(=O)NCCN(CC(=O)NCCN)CC(=O)NCCN)c2cccc(C)n2)c(N2CCC(COc3cc([C@@H](CC(=O)O)C4CC4)ccn3)CC2)c1 [Example 64]	0.68	–	–
COc1ccc(F)c(-c2ccc(COc3cccc([C@@H](CC(=O)O)C4CC4)c3)cc2C(C)(C)c2cn(CCCCCCCCCCCCCC(=O)NCC[N+](C)(CCC(=O)NCCN)CCC(=O)NCCN)nn2)c1 [Example 9]	640	–	–
COc1ccc(F)c(-c2ccc(COc3cccc([C@@H](CC(=O)O)C4CC4)c3)cc2CC(C)(C)Cn2cc(CCCCCCCCCC(=O)NCCCN(CC(=O)O)CC(=O)O)nn2)c1 [Example 104]	> 10000	–	–
C[C@H](C(=O)O)[C@H](c1ccc2c(c1)O[C@@H](C1CN(Cc3cc(-c4cn(CCCCCCCCCCCCCCCCCC(=O)NCC[N+](C)(CCC(=O)NCCN)CCC(=O)NCCN)nn4)ccc3OC(F)(F)F)C1)CC2)C1CC1 [Example 45]	0.68	–	–
COc1ccc(C(=O)N(CC(C)(C)CCCCCCn2cc(CCCCCCCCC(=O)NCC[N+](C)(CCC(=O)NCCN)CCC(=O)NCCN)nn2)c2cccc(C)n2)c(N2CCC(COc3cc([C@@H](CC(=O)O)C4CC4)ccn3)CC2)c1 [Example 53]	3.18	3.81	–

Results, then the compound that gave them:

EC50 [1] [nM]	EC50 [2] [nM]	EC50 [3] [nM]	SMILES
66.3	–	–	COc1ccc(C(=O)N(CC(C)(C)CCCCCCn2cc(CCCCC(=O)NCCC[N+](C)(CC(=O)[O-])CC(=O)O)nn2)c2cccc(C)n2)c(N2CCC(COc3cc([C@@H](CC(=O)O)C4CC4)ccn3)CC2)c1 (some centres unmarked) [Example 211]
0.05	0.05	–	COc1ccc(C(=O)N(CC(C)(C)CCCCCCn2cc(CCCCCCCCCCCCCC(=O)NCC[N+](C)(CCC(=O)NCCN)CCC(=O)NCCN)nn2)c2cccc(C)n2)c(N2CCC(COc3cc([C@@H](CC(=O)O)C4CC4)ccn3)CC2)c1 [Example 190]
0.48	0.48	–	COc1ccc(C(=O)N(CC(C)(C)CCn2cc(CCCCCCCCCCCCCCCC(=O)NCCCN(CC(=O)O)CC(=O)O)nn2)c2cccc(C)n2)c(N2CCC(COc3cc([C@@H](CC(=O)O)C4CC4)ccn3)CC2)c1 [Example 216]
2.53	–	–	COc1ccc(F)c(-c2ccc(COc3cccc([C@@H](CC(=O)O)C4CC4)c3)cc2CC(C)(C)Cn2cc(CCCCCCCCCCCCCCCC(=O)NCCC[N+](C)(CC(=O)NCCN)CC(=O)NCCN)nn2)c1 [Example 156]
5	–	–	COc1ccc(F)c(-c2ccc(COc3cccc([C@@H](CC(=O)O)C4CC4)c3)cc2CC(C)(C)Cn2cc(CCCCCCCCCCCCCCCC(=O)NCCCN(CC(=O)O)CC(=O)O)nn2)c1 [Example 121]
0.51	0.51	0.51	COc1ccc(C(=O)N(CC(C)(C)CCn2cc(CCCCCCCCCCCCC(=O)NCC[N+](C)(CCC(=O)NCCN)CCC(=O)NCCN)nn2)c2cccc(C)n2)c(N2CCC(COc3cc([C@@H](CC(=O)O)C4CC4)ccn3)CC2)c1 [Example 115]
5170	5170	–	COc1ccc(F)c(-c2ccc(COc3cccc([C@@H](CC(=O)O)C4CC4)c3)cc2CC(C)(C)Cn2cc(CCCCCCCCC(=O)NCC[N+](C)(CCC(=O)NCCN)CCC(=O)NCCN)nn2)c1 [Example 144]
2200	–	2200	COc1ccc(C(=O)N(CC(C)(C)CCn2cc(COCCOCCOCCOCCOCC(=O)NCCN(CCC(=O)NCCN)CCC(=O)NCCN)nn2)c2cccc(C)n2)c(N2CCC(COc3cc([C@@H](CC(=O)O)C4CC4)ccn3)CC2)c1 [Example 161]
1250	–	1250	COc1ccc(C(=O)N(CC(C)(C)CCn2cc(COCCOCCOCC(=O)NCC[N+](C)(CCC(=O)NCCN)CCC(=O)NCCN)nn2)c2cccc(C)n2)c(N2CCC(COc3cc([C@@H](CC(=O)O)C4CC4)ccn3)CC2)c1 [Example 162]
1230	–	–	COc1ccc(F)c(-c2ccc(COc3cccc([C@@H](CC(=O)O)C4CC4)c3)cc2OC(C)(C)Cn2cc(CCCCCCCCC(=O)NCCN(CCC(=O)NCCN)CCC(=O)NCCN)nn2)c1 [Example 136]
114	114	94	C[C@H](C(=O)O)[C@H](c1ccc2c(c1)O[C@@H](C1CCN(Cc3cc(-n4cc(CCCCCCCCCC(=O)NCC[N+](C)(CCC(=O)NCCN)CCC(=O)NCCN)nn4)ccc3OC(F)(F)F)CC1)CC2)C1CC1 [Example 194]
617	617	–	COc1ccc(C(=O)N(CC(C)(C)CCn2cc(CCCCCCCCCC(=O)NCCC[N+](C)(CC(=O)[O-])CC(=O)O)nn2)c2cccc(C)n2)c(N2CCC(COc3cc([C@@H](CC(=O)O)C4CC4)ccn3)CC2)c1 (some centres unmarked) [Example 125]
0.03	0.05	0.05	C[C@H](C(=O)O)[C@H](c1ccc2c(c1)O[C@@H](C1CCN(Cc3cc(-n4cc(CCCCCCCCCCCCCCCC(=O)NCC[N+](C)(CCC(=O)NCCN)CCC(=O)NCCN)nn4)ccc3OC(F)(F)F)CC1)CC2)C1CC1 [Example 186]
1290	–	–	COc1ccc(F)c(-c2ccc(COc3cccc([C@@H](CC(=O)O)C4CC4)c3)cc2CC(C)(C)Cn2cc(CCCCCCCCCCCC(=O)NCCCN(CC(=O)O)CC(=O)O)nn2)c1 [Example 120]
